Assay results published in PubChem BioAssay AID2060884 (Molecular Pharmacology Branch, DTP, NCI, 2025).

Test system: NCI-H929 complex spheroids, viability % test/control
Assay: Anticancer human tumor NCI-H929 cell line growth inhibition [RAS];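 note: compound exposure lasted seven days before viability was read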;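 for viability, T/C: 100% = DMSO vehicle control viability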
Conditions: for IC50: curve of first compound; for viability, T/C: stronger effect = lower value
Method in brief: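 Multi-cell-type spheroids: tumor cells plus HUVEC endothelial cells and mesenchymal stem cells. RAS-pathway inhibitors were combined with targeted agents, each dosed in half-log steps down from clinical Cmax, or from 10 microM when Cmax was unknown.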

`CC(=O)OC12COC1CC(O)C1(C)C(=O)C(O)C3=C(C)C(OC(=O)C(O)C(NC(=O)OC(C)(C)C)c4ccccc4)CC(O)(C(OC(=O)c4ccccc4)C21)C3(C)C` (configuration not stated) + C#Cc1c(F)ccc2cc(O)cc(-c3ncc4c(N5CC6CCC(C5)N6)nc(OCC56CCCN5CC(F)C6)nc4c3F)c12 showed an IC50 (second compound 0.0316 µM) of less than 31.6 nM, an IC50 (second compound 0.1 µM) of less than 31.6 nM and an IC50 (second compound 0.316 µM) of less than 31.6 nM. It also gave an IC50 (second compound 1 µM) of less than 31.6 nM, an IC50 (second compound 3.16 µM) of less than 31.6 nM and an IC50 (second compound 10 µM) of less than 31.6 nM. For the same compound, the viability, T/C (second compound 0.0316 µM, first compound 0.0316 µM) was 0.76%, the viability, T/C (second compound 0.0316 µM, first compound 0.1 µM) was 1.3% and the viability, T/C (second compound 0.0316 µM, first compound 0.316 µM) was 1.24%. It also gave a viability, T/C (second compound 0.0316 µM, first compound 1 µM) of 1.01%, a viability, T/C (second compound 0.0316 µM, first compound 3.16 µM) of 1.67% and a viability, T/C (second compound 0.0316 µM, first compound 10 µM) of 0.89%. The viability, T/C (second compound 0.1 µM, first compound 0.0316 µM) was 1.76%, the viability, T/C (second compound 0.1 µM, first compound 0.1 µM) was 0.93% and the viability, T/C (second compound 0.1 µM, first compound 0.316 µM) was 1.5%. It also gave a viability, T/C (second compound 0.1 µM, first compound 1 µM) of 1.51%, a viability, T/C (second compound 0.1 µM, first compound 3.16 µM) of 1.27% and a viability, T/C (second compound 0.1 µM, first compound 10 µM) of 0.89%. It also gave a viability, T/C (second compound 0.316 µM, first compound 0.0316 µM) of 1.1%, a viability, T/C (second compound 0.316 µM, first compound 0.1 µM) of 0.78% and a viability, T/C (second compound 0.316 µM, first compound 0.316 µM) of 1.16%. It also gave a viability, T/C (second compound 0.316 µM, first compound 1 µM) of 1.88%, a viability, T/C (second compound 0.316 µM, first compound 3.16 µM) of 1.5% and a viability, T/C (second compound 0.316 µM, first compound 10 µM) of 0.79%. The viability, T/C (second compound 1 µM, first compound 0.0316 µM) was 1.5%, the viability, T/C (second compound 1 µM, first compound 0.1 µM) was 0.8% and the viability, T/C (second compound 1 µM, first compound 0.316 µM) was 1.05%. It also gave a viability, T/C (second compound 1 µM, first compound 1 µM) of 2.04%, a viability, T/C (second compound 1 µM, first compound 3.16 µM) of 1.33% and a viability, T/C (second compound 1 µM, first compound 10 µM) of 0.88%. It also gave a viability, T/C (second compound 3.16 µM, first compound 0.0316 µM) of 1.91%, a viability, T/C (second compound 3.16 µM, first compound 0.1 µM) of 0.99% and a viability, T/C (second compound 3.16 µM, first compound 0.316 µM) of 1.37%. The viability, T/C (second compound 3.16 µM, first compound 1 µM) was 0.71%, the viability, T/C (second compound 3.16 µM, first compound 3.16 µM) was 1.08% and the viability, T/C (second compound 3.16 µM, first compound 10 µM) was 0.76%. The viability, T/C (second compound 10 µM, first compound 0.0316 µM) was 1.78%, the viability, T/C (second compound 10 µM, first compound 0.1 µM) was 0.88% and the viability, T/C (second compound 10 µM, first compound 0.316 µM) was 1.86%. For the same compound, the viability, T/C (second compound 10 µM, first compound 1 µM) was 1.55%, the viability, T/C (second compound 10 µM, first compound 3.16 µM) was 1.23% and the viability, T/C (second compound 10 µM, first compound 10 µM) was 0.77%.
